Among the test systems are ACHN renal; HCT-15 colon; HOP-62 NSCLC; HS 578T breast; NCI-H522 lung; OVCAR-3 ovarian; OVCAR-8 ovarian; PC-3 prostate; SNB-19 CNS; TK-10 renal.
Assay in all cases: NCI tumour cell line growth inhibition, 48 h

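Grown in 96-well plates, cells were treated for 48 hours with each compound at five concentrations. Insufficient inhibition: endpoint recorded as highest concentration tested. At the GI50, growth is halved. The concentration for full growth arrest is given as TGI.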

`COc1ccc(C2C=C(c3ccc4c(c3)OCO4)Oc3c2c(=O)oc2ccccc32)cc1OC` (stereo not given): the TGI was above 100 µM in the test on ACHN renal; above 100 µM in the test with HCT-15 colon; above 100 µM with HOP-62 NSCLC; above 100 µM in the test on HS 578T breast; above 66.3 µM in the test on NCI-H522 lung; 15.5 µM in the test on OVCAR-3 ovarian. Also, the TGI with OVCAR-8 ovarian was above 100 µM; in the test on PC-3 prostate, above 100 µM; in the test on SNB-19 CNS it was above 100 µM; in the test on TK-10 renal, above 78.1 µM.
Turning to `COc1cc2c(cc1Nc1nc(Nc3cccc(F)c3C(N)=O)c3cc[nH]c3n1)N(C(=O)CN1CCN(C(C)C)CC1)CC2`, the GI50 in the test with ACHN renal was 4.59 µM; in the test on HCT-15 colon, 4.36 µM; in the test with HOP-62 NSCLC it was 2.88 µM; with HS 578T breast, 3.76 µM; in the test on NCI-H522 lung, 3.89 µM; with OVCAR-3 ovarian it was 4.52 µM. For the same compound, the GI50 is 4.54 µM in the test on OVCAR-8 ovarian, 5.12 µM in the test on PC-3 prostate, 4.11 µM in the test on SNB-19 CNS and 2.97 µM in the test with TK-10 renal. Moreover, the TGI with ACHN renal was 10.2 µM; in the test with HCT-15 colon it was 9.33 µM; in the test on HOP-62 NSCLC it was 5.92 µM; in the test on HS 578T breast, 10.3 µM; in the test with NCI-H522 lung it was 7.69 µM; in the test with OVCAR-3 ovarian, 8.69 µM. In addition, the TGI came to 10.2 µM in the test with OVCAR-8 ovarian, 13.5 µM in the test on PC-3 prostate, 8.27 µM with SNB-19 CNS and 7.55 µM in the test with TK-10 renal.
Take `O=c1ssc(Cl)c1Cl`: the TGI was above 10 µM in the test with ACHN renal; above 10 µM with HCT-15 colon; above 10 µM in the test on HOP-62 NSCLC; above 10 µM in the test with HS 578T breast; above 6.78 µM in the test with NCI-H522 lung; above 10 µM in the test with OVCAR-3 ovarian. The TGI with OVCAR-8 ovarian, in the test with PC-3 prostate, in the test with SNB-19 CNS and in the test on TK-10 renal was above 10 µM throughout.
Regarding `Cc1cc(C(C)(C)C)cc(CNC2CCCCC2)c1O`, the TGI in the test on ACHN renal turned out to be 31 µM; with HCT-15 colon, 31.4 µM; in the test with HOP-62 NSCLC, 47.6 µM; in the test with HS 578T breast it was 48.7 µM; in the test with NCI-H522 lung it was 25.2 µM; in the test on OVCAR-3 ovarian, 34.2 µM. Besides, the TGI was 31 µM in the test on OVCAR-8 ovarian, 31 µM with PC-3 prostate, 31.9 µM in the test with SNB-19 CNS and 29.7 µM in the test with TK-10 renal.
As to `NCOC(=O)Cc1ccc(Br)cc1`, the TGI in the test with ACHN renal, in the test on HCT-15 colon, in the test on HOP-62 NSCLC, in the test with HS 578T breast, with NCI-H522 lung and in the test with OVCAR-3 ovarian was above 100 µM throughout. In addition, the TGI with OVCAR-8 ovarian, in the test with PC-3 prostate, in the test with SNB-19 CNS and with TK-10 renal was above 100 µM throughout.
Take `CC(=O)N1N=C2/C(=C/c3ccc(Cl)cc3)CC(C)CC2C1c1ccc(Cl)cc1` (stereo not given): the GI50 with ACHN renal was 33.2 µM; in the test on HCT-15 colon, 31.9 µM; with HOP-62 NSCLC it was 22.1 µM; in the test with HS 578T breast it was 20.6 µM; with NCI-H522 lung, 17.1 µM; in the test with OVCAR-3 ovarian it was 20 µM. Besides, the GI50 with OVCAR-8 ovarian was 24.9 µM; in the test with PC-3 prostate it was 12.8 µM; in the test with SNB-19 CNS it was 23.7 µM; in the test on TK-10 renal it was 37.2 µM. Also, the TGI with ACHN renal is above 100 µM; in the test with HCT-15 colon, above 100 µM; in the test with HOP-62 NSCLC, 54.6 µM; in the test with HS 578T breast, 72.1 µM; with NCI-H522 lung, 56.8 µM; in the test on OVCAR-3 ovarian it was 53.9 µM. Further, the TGI in the test on OVCAR-8 ovarian, in the test on PC-3 prostate, with SNB-19 CNS and in the test on TK-10 renal was above 100 µM in each case.
With `O=C1c2cc([N+](=O)[O-])ccc2-c2ccc3c4ccc5c6c(ccc(c7ccc1c2c73)c64)C(=O)c1cc([N+](=O)[O-])ccc1-5`, the TGI in the test on ACHN renal, in the test on HCT-15 colon, in the test with HOP-62 NSCLC, in the test with HS 578T breast, in the test with NCI-H522 lung and with OVCAR-3 ovarian was above 100 µM each time. The TGI in the test on OVCAR-8 ovarian, in the test on PC-3 prostate, with SNB-19 CNS and in the test on TK-10 renal was above 100 µM each time.
On to `CN(Cc1cc(Cl)cc(Cl)c1O)Cc1c(O)ccc2ccccc12`, for which the TGI in the test on ACHN renal amounted to 31 µM; with HCT-15 colon it was 38.9 µM; with HOP-62 NSCLC, 38.7 µM; in the test on HS 578T breast, 44.4 µM; with NCI-H522 lung, 29.6 µM; with OVCAR-3 ovarian, 35.7 µM. Moreover, the TGI in the test on OVCAR-8 ovarian came out at 39.2 µM; in the test on PC-3 prostate, 30.7 µM; in the test on SNB-19 CNS, 37.9 µM; with TK-10 renal it was 31.1 µM.
For the compound `CCN(CC)C1CCC(Nc2c(C(C)=O)cnc3ccc(-c4ccc(O)c(Cl)c4)cc23)CC1` (stereo not given), the GI50 in the test with ACHN renal was 0.485 µM; in the test with HCT-15 colon, 0.301 µM; in the test on HOP-62 NSCLC, 2.14 µM; with HS 578T breast, 0.157 µM; in the test on NCI-H522 lung, 0.331 µM; with OVCAR-3 ovarian, 0.38 µM. Besides, the GI50 in the test with OVCAR-8 ovarian is 0.818 µM; in the test on PC-3 prostate, 0.494 µM; in the test with SNB-19 CNS it was 1.75 µM; with TK-10 renal, 3.52 µM. Further, the TGI was above 37.8 µM with ACHN renal; 9.62 µM in the test with HCT-15 colon; above 45.5 µM in the test with HOP-62 NSCLC; 2.81 µM with HS 578T breast; 1.71 µM in the test on NCI-H522 lung; 3.15 µM in the test with OVCAR-3 ovarian. For the same compound, the TGI is 14 µM with OVCAR-8 ovarian, above 44.5 µM with PC-3 prostate, 69.6 µM in the test with SNB-19 CNS and above 100 µM in the test on TK-10 renal.
Turning to `COc1ccc(Nc2cc(C)nc(NCCCNc3ccnc4cc(Cl)ccc34)n2)cc1`, the GI50 is 1.61 µM in the test on ACHN renal; 1.03 µM with HCT-15 colon; 1.65 µM in the test with HOP-62 NSCLC; 1.8 µM in the test on HS 578T breast; 2.04 µM in the test on NCI-H522 lung; 1.65 µM in the test with OVCAR-3 ovarian. For the same compound, the GI50 in the test with OVCAR-8 ovarian was 2.42 µM; in the test with PC-3 prostate, 2.35 µM; in the test with SNB-19 CNS, 3.48 µM; in the test on TK-10 renal it was 1.89 µM. The TGI is 3.16 µM in the test on ACHN renal; 2.49 µM with HCT-15 colon; 3.93 µM in the test with HOP-62 NSCLC; 4.39 µM in the test with HS 578T breast; 3.65 µM with NCI-H522 lung; 3.12 µM in the test with OVCAR-3 ovarian. Moreover, the TGI with OVCAR-8 ovarian is 6.03 µM; with PC-3 prostate it was 9.9 µM; in the test with SNB-19 CNS it was 13.4 µM; with TK-10 renal, 3.41 µM.
As for `CC(=O)OC1CC2C3CCC4C[C@@H](NC(=O)C=C(C)C)CC[C@]4(C)C3CC[C@]2(C)[C@H]1C(C)N(C)C` (stereo not given in full), the GI50 in the test with ACHN renal was 2.73 µM; with HCT-15 colon it was 0.721 µM; in the test on HOP-62 NSCLC, 1.8 µM; with HS 578T breast, 2 µM; in the test on NCI-H522 lung, 2.78 µM; in the test on OVCAR-3 ovarian, 1.99 µM. The GI50 in the test on OVCAR-8 ovarian is 4.87 µM; with PC-3 prostate it was 2.14 µM; with SNB-19 CNS, 3.63 µM; in the test on TK-10 renal it was 5.45 µM. Further, the TGI amounted to 7.36 µM in the test on ACHN renal; 2.75 µM in the test with HCT-15 colon; 3.64 µM in the test with HOP-62 NSCLC; 5.25 µM with HS 578T breast; 11.4 µM in the test on NCI-H522 lung; 7.56 µM in the test on OVCAR-3 ovarian. Moreover, the TGI in the test with OVCAR-8 ovarian was above 31.5 µM; with PC-3 prostate, 8.97 µM; in the test on SNB-19 CNS it was 9.06 µM; in the test with TK-10 renal, 13.3 µM.
`NC(N)=N/N=C/c1ccc(-c2ccc(-c3cc(Cl)cc(Cl)c3)s2)cc1`: the GI50 in the test on ACHN renal was 1.75 µM; with HCT-15 colon it was 1.25 µM; with HOP-62 NSCLC, 1.79 µM; in the test with HS 578T breast, 1.78 µM; with NCI-H522 lung it was 1.85 µM; with OVCAR-3 ovarian, 1.71 µM. For the same compound, the GI50 with OVCAR-8 ovarian is 2.48 µM; in the test on PC-3 prostate it was 1.58 µM; in the test on SNB-19 CNS, 1.85 µM; in the test with TK-10 renal, 1.71 µM. Also, the TGI in the test on ACHN renal was 3.29 µM; in the test with HCT-15 colon it was 2.76 µM; in the test with HOP-62 NSCLC, 4.05 µM; in the test with HS 578T breast, 4.05 µM; in the test on NCI-H522 lung it was 4.45 µM; with OVCAR-3 ovarian, 3.27 µM. For the same compound, the TGI in the test on OVCAR-8 ovarian was found to be 6.34 µM; in the test on PC-3 prostate, 3.16 µM; in the test on SNB-19 CNS, 3.73 µM; in the test on TK-10 renal, 3.54 µM.

Values taken from PubChem BioAssay (NCI).
